The values below come from patent US9920017B2, “Heterocyclic compounds as pesticides” (BAYER CROPSCIENCE AKTIENGESELLSCHAFT, priority 2014, dated 2018).

The nature of this data set: Determination of log P values by HPLC (reversed-phase C18). In kind it is physicochemical. Particulars: for logP (neutral): N-[1-aryl-1H-1,2,4-triazol-3-yl]benzamides, formula (1-9); for chromatographic logP: reversed-phase C18 HPLC column, HPLC-MS, preparation examples; for log P neutral: HPLC, reversed-phase C18, 55° C., final compounds table. As for the experimental part:
1) Description of Method for Determination of the Log P Values ([…]) The log P values given in the table were determined in accordance with EEC Directive 79/831 Annex V.A8 by HPLC (High Performance Liquid Chromatography) using a reversed-phase column (C 18). Temperature: 55° C. […] Gradient: from 10% eluent A/90% eluent B to 95% eluent A/5% eluent B in 4.25 min. Calibration was effected with unbranched alkan-2-ones (having 3 to 16 carbon atoms) with known log P values (log P values determined on the basis of the retention times by linear interpolation between two successive alkanones). The lambda max values were determined in the maxima of the chromatographic signals using the UV spectra from 200 nm to 400 nm.

Like-named read-outs stand apart in the source and are kept apart here.

Consider `O=C(Nc1ncn(-c2c(Br)cc(F)cc2Br)n1)c1ccccc1` [1-9 R1=Br R2m=6-Br-4-F], for which the “logP (neutral)” value is reported as 2.14. Turning to `O=C(Nc1ncn(-c2c(Br)cccc2Br)n1)c1ccccc1` [1-9 R1=Br R2m=6-Br], the “logP (neutral)” value is recorded as 2.00.

With `O=C(Nc1ncn(-c2ccccc2Br)n1)c1ccccc1` [1-9 R1=Br R2m=—], the “logP (neutral)” value turned out to be 1.80. On the same count and under the same terms, then `O=C(Nc1ncn(-c2ccccc2C(F)(F)F)n1)c1ccccc1` [1-9 R1=CF3 R2m=—], with 1.91; and `COc1cccc(C)c1-n1cnc(NC(=O)c2ccccc2)n1` [1-9 R1=CH3 R2m=6-OCH3], with 1.76.

`O=C(Nc1ncn(-c2cccc(Cl)c2Cl)n1)c1ccccc1` [1-9 R1=Cl R2m=3-Cl]: the “logP (neutral)” value is given as 2.11. On to `O=C(Nc1ncn(-c2ccc(Cl)cc2Cl)n1)c1ccccc1` [1-9 R1=Cl R2m=4-Cl], for which the “logP (neutral)” value stood at 2.18. Regarding `O=C(Nc1ncn(-c2cc(Cl)ccc2Cl)n1)c1ccccc1` [1-9 R1=Cl R2m=5-Cl], the “logP (neutral)” value is 2.17. On the same count and under the same terms, the same measure for `CCc1cccc(Cl)c1-n1cnc(NC(=O)c2ccccc2)n1` [1-9 R1=Cl R2m=6-C2H5]: 2.2; for `Cc1cccc(Cl)c1-n1cnc(NC(=O)c2ccccc2)n1` [1-9 R1=Cl R2m=6-CH3]: 1.92. Take `O=C(Nc1ncn(-c2c(Cl)cccc2Cl)n1)c1ccccc1` [1-9 R1=Cl R2m=6-Cl]: the “logP (neutral)” value is given as 1.8. Same read-out and setting: the same measure for `O=C(Nc1ncn(-c2c(F)cccc2Cl)n1)c1ccccc1` [1-9 R1=Cl R2m=6-F]: 1.75; for `O=C(Nc1ncn(-c2ccccc2Cl)n1)c1ccccc1` [1-9 R1=Cl R2m=—]: 1.75; for `O=C(Nc1ncn(-c2c(F)c(F)c(F)c(F)c2F)n1)c1ccccc1` [1-9 R1=F R2m=3,4,5,6-F4]: 2.11. Still for that read-out and setting: then `O=C(Nc1ncn(-c2c(F)ccc(F)c2F)n1)c1ccccc1` [1-9 R1=F R2m=3,6-F2], with 1.73. On the same count and under the same terms, then `O=C(Nc1ncn(-c2c(F)cc(F)cc2F)n1)c1ccccc1` [1-9 R1=F R2m=4,6-F2], with 1.71. `Cc1cccc(F)c1-n1cnc(NC(=O)c2ccccc2)n1` [1-9 R1=F R2m=6-CH3]: the “logP (neutral)” value was 1.89. For the compound `O=C(Nc1ncn(-c2c(F)cccc2I)n1)c1ccccc1` [1-9 R1=F R2m=6-I], the “logP (neutral)” value was 1.79.

For the compound `O=C(Nc1ncn(-c2ccccc2F)n1)c1ccccc1` [1-9 R1=F R2m=—], the “logP (neutral)” value is reported as 1.69.

With `O=C(Nc1ncn(-c2ccccc2I)n1)c1ccccc1` [1-9 R1=I R2m=—], the “logP (neutral)” value stood at 1.87. Same read-out and setting: the same measure for `O=C(Nc1ncn(-c2ccccc2OC(F)(F)F)n1)c1ccccc1` [1-9 R1=OCF3 R2m=—]: 2.15. For the compound `Nc1ncn(-c2c(F)cccc2F)n1` [1-(2,6-Difluorophenyl)-1H-1,2,4-triazol-3-amine], for the setting “read-out: log P (neutral)”, the chromatographic logP was found to be 0.61.

`Nc1ncn(-c2c(F)cccc2Br)n1` [1-(2-Bromo-6-fluorophenyl)-1H-1,2,4-triazol-3-amine]: for the setting “read-out: log P (neutral)”, the chromatographic logP came to 0.92. On to `Nc1ncn(-c2ncc(F)cc2F)n1` [1-(3,5-Difluoropyridin-2-yl)-1H-1,2,4-triazol-3-amine], for which the chromatographic logP (pH 3.4, read-out: log P) stood at 0.3. As for `Nc1ncn(-c2c(F)cccc2C(F)(F)F)n1` [1-[2-Fluoro-6-(trifluoromethyl)phenyl]-1H-1,2,4-triazol-3-amine], the chromatographic logP (read-out: log P (neutral)) was determined as 1.09.

On to `Nc1noc(-c2ccccc2)n1` [5-Phenyl-1,2,4-oxadiazol-3-amine], for which the chromatographic logP (read-out: log P (neutral)) was 1.28. With `O=C(Nc1ncn(-c2ccccc2F)n1)c1ccccc1Cl` [Compound I-1-1], the “log P neutral” value is listed as 1.88. As for `O=C(Nc1ncn(-c2ccccc2F)n1)c1ccccc1C(F)(F)F` [Compound I-1-2], the “log P neutral” value stood at 2.06. `O=C(Nc1ncn(-c2ccccc2Cl)n1)c1ccccc1C(F)(F)F` [Compound I-1-3]: the “log P neutral” value was 2.10. Still for that read-out and setting: the same measure for `O=C(Nc1ncn(-c2ccccc2Cl)n1)c1ccccc1Cl` [Compound I-1-5]: 1.91.
